Assay results: patent US20210330611A1, “THERAPY FOR NEUROLOGICAL DISEASES/DISORDERS” (priority 2020, published 2021)
Counter-ions that a name gives are not always drawn. Like-named read-outs stand apart in the source and are kept apart here.

How the values were obtained:
[1] = test system: fibrin-induced microglia activation; assay: Image-based assay of fibrin-induced microglia activation (HTS and dose response); format: cell-based, rat; conditions: for inhibition at 10 µM: Rattus norvegicus, Microglia, read-out: Fibrin % inhibition
[2] = test system: LPS-induced microglia activation; assay: Image-based assay of LPS-induced microglia activation (HTS and dose response); format: cell-based, rat; conditions: for inhibition at 10 µM: Rattus norvegicus, Microglia, read-out: LPS % inhibition
[3] = test system: fibrin- and LPS-induced microglia activation; assay: cells; format: cell-based, rat
primary rat microglia [4] = test system: primary rat microglia;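 for Fibrin % cell toxicity: share of dead cells sized under 150 µm2 at 10 µM in fibrin-stimulated microglia HTS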
primary rat microglia [5] = test system: primary rat microglia; remark: listed apart in the source;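 for Fibrin % cell toxicity: share of dead cells sized under 150 µm2 at 10 µM in fibrin-stimulated microglia HTS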
[6] = primary HTS, 10 μM, fibrin-stimulated primary microglia
[7] = primary HTS, 10 μM, LPS-stimulated primary microglia
[8] = primary microglia HTS, 10 μM, fibrin-stimulated, cell size >800 μm^2 as marker of activation
[9] = primary microglia HTS, 10 μM, LPS-stimulated, cell size >800 μm^2 as marker of activation
[10] = HTS of 1907 compounds, quadrant by fibrin and LPS inhibition
[11] = primary microglia HTS, fibrin stimulation, increased cell size (>800 μm^2) as marker of activation
[12] = 48 h, primary microglia HTS, LPS stimulation, increased cell size (>800 μm^2) as marker of activation
[13] = quadrant by fibrin and LPS inhibition in HTS of 1907 compounds
[14] = primary microglia HTS, fibrin stimulation, compounds at 10 μM
[15] = primary microglia HTS, LPS stimulation, compounds at 10 μM
[16] = quadrant by fibrin and LPS inhibition, HTS at 10 μM

Row | Compound | inhibition at 10 µM [1] [%] | Quadrant (FIG. 5b) [3] | Fibrin % cell toxicity (primary rat microglia [4]; rat) [%] | LPS % cell toxicity (primary rat microglia [5]; rat) [%] | other results
1 | Clc1ccc2nsnc2c1NC1=NCCN1 [Tizanidine] | 2 | Q4 | 1 | 1 | inhibition at 10 µM [2]: 2%
2 | c1ccc(C2CN3CCSC3=N2)cc1 (stereo not drawn) [Tetramizole Hydrochloride] | 107 | Q2 | 8 | 5 | inhibition at 10 µM [2]: 112%
3 | NNc1nncc2ccccc12 [Hydralazine] | -13 | Q4 | 1 | 0 | inhibition at 10 µM ([2]; 48 h): 22%
4 | C=C(c1ccc(C(=O)O)cc1)c1cc2c(cc1C)C(C)(C)CCC2(C)C [Bexarotene] | – | – | 1 | 1 | inhibition at 10 µM [1, 6]: -3%; inhibition at 10 µM [2, 7]: 10%; Quadrant (FIG. 5b) ([3]; primary HTS, 10 μM): Q4
5 | O=S(=O)(O)NC1CCCCC1 [Cyclamic Acid] | 4 | Q4 | 0 | 0 | inhibition at 10 µM [2]: 13%
6 | COc1ccc(CC(C)NCC(O)c2ccc(O)c(NC=O)c2)cc1 (stereo not drawn) [Formoterol] | -6 | Q4 | 1 | 1 | inhibition at 10 µM ([2]; 48 h): 32%
7 | Nc1nc(=O)n([C@@H]2CS[C@H](CO)O2)cc1F [Emtricitabine] | -73 | Q4 | 1 | 1 | inhibition at 10 µM [2]: 11%
8 | CCC(=O)OCC(=O)[C@@]1(OC(=O)CC)[C@@H](C)C[C@H]2[C@@H]3CCC4=CC(=O)C=C[C@]4(C)[C@@]3(F)[C@@H](O)C[C@@]21C [Betamethasone 17,21-dipropionate] | – | – | – | – | Fibrin % inhibition [1, 6]: 21%; LPS % inhibition [2, 7]: 29%; Quadrant (FIG. 5b) ([3]; primary HTS, 10 μM): Q4; Fibrin % cell toxicity (primary rat microglia [4]): 1%; LPS % cell toxicity (primary rat microglia [5]): 0%
9 | CC[C@@H](c1cccc(O)c1)[C@@H](C)CN(C)C [Tapentadol Hydrochloride] | – | – | 1 | 0 | inhibition at 10 µM [1, 8]: -12%; inhibition at 10 µM [2, 9]: 12%; Quadrant (FIG. 5b) [3, 10]: Q4
10 | CC(=O)Nc1c(I)c(NC(C)=O)c(I)c(C(=O)O)c1I [Diatrizoate] | 4 | Q4 | 0 | 0 | inhibition at 10 µM [2]: 5%
11 | Oc1ccc2c3c1O[C@H]1[C@@H](O)CC[C@@]4(O)[C@@H](C2)N(CC2CCC2)CC[C@]314 [Nalbuphine Hydrochloride] | – | Q4 | 1 | 0 | Fibrin % inhibition [1]: −11%; LPS % inhibition [2]: 15%
12 | CN(C)c1ccc2nc3ccc(=[N+](C)C)cc-3sc2c1 [Methylene Blue] | 25 | Q1 | 1 | 1 | inhibition at 10 µM ([2]; 48 h): 73%
13 | O=C(c1ccc(OCCN2CCCCC2)cc1)c1c(-c2ccc(O)cc2)sc2cc(O)ccc12 [Raloxifene] | – | – | 0 | 1 | inhibition at 10 µM [1, 11]: 7%; inhibition at 10 µM [2, 12]: 60%; Quadrant (FIG. 5b) [3, 13]: Q1
14 | CCCC(=O)Nc1ccc(OCC(O)CNC(C)C)c(C(C)=O)c1 (stereo not drawn) [Acebutolol] | – | – | 1 | 0 | inhibition at 10 µM [1, 14]: -11%; inhibition at 10 µM [2, 15]: 19%; Quadrant (FIG. 5b) [3, 16]: Q4
15 | Cc1ccc(-c2cc(C(F)(F)F)nn2-c2ccc(S(N)(=O)=O)cc2)cc1 [Celecoxib] | – | – | 0 | 0 | inhibition at 10 µM [1, 6]: -31%; inhibition at 10 µM [2, 7]: 21%; Quadrant (FIG. 5b) ([3]; primary HTS, 10 μM): Q4
16 | CNC[C@H](O)c1cccc(O)c1 [Phenylephrine] | 38 | Q4 | 1 | 0 | inhibition at 10 µM ([2]; 48 h): 31%
17 | COc1ccc(CN(CCN(C)C)c2ccccn2)cc1 [Mepyramine] | – | – | 0 | 0 | inhibition at 10 µM [1, 11]: -11%; inhibition at 10 µM [2, 12]: 13%; Quadrant (FIG. 5b) [3, 13]: Q4
18 | Sulfanilate Zinc | – | Q4 | – | – | Fibrin % inhibition ([1]; 10 µM): −6%; LPS % inhibition ([2]; 10 µM): 15%; Fibrin % cell toxicity (primary rat microglia [4]): 0%; LPS % cell toxicity (primary rat microglia [5]): 0%
19 | CC[C@@]1(O)C(=O)OCc2c1cc1n(c2=O)Cc2cc3c(CN(C)C)c(O)ccc3nc2-1 [Topotecan, Topotecan Hydrochloride] | – | – | – | – | Fibrin % inhibition [1, 14]: 112%; LPS % inhibition [2, 15]: 112%; Quadrant (FIG. 5b) [3, 16]: Q2; Fibrin % cell toxicity (primary rat microglia [4]): 63%; LPS % cell toxicity (primary rat microglia [5]): 40%
20 | C#CCN(C)CCCOc1ccc(Cl)cc1Cl.Cl | – | Q4 | – | – | Fibrin % inhibition ([1]; 10 µM): −28%; LPS % inhibition ([2]; 10 µM): 6%; Fibrin % cell toxicity (primary rat microglia [4]): 0%; LPS % cell toxicity (primary rat microglia [5]): 0%
21 | [H]/N=C(/N)N[C@H]1[C@H](O)[C@@H](O)[C@H](O[C@@H]2O[C@@H](C)[C@](O)(C=O)[C@H]2O[C@@H]2O[C@@H](CO)[C@H](O)[C@@H](O)[C@@H]2NC)[C@@H](N/C(N)=N\[H])[C@@H]1O [Streptomycin Sulfate] | – | – | 0 | 0 | inhibition at 10 µM [1, 8]: -46%; inhibition at 10 µM [2, 9]: 13%; Quadrant (FIG. 5b) [3, 10]: Q4
22 | C[N+](C)(C)CCO [Choline] | 0 | Q4 | 0 | 0 | inhibition at 10 µM [2]: 12%
23 | CCCCCOC(=O)Nc1nc(=O)n([C@@H]2O[C@H](C)[C@@H](O)[C@H]2O)cc1F [Capecitabine] | – | – | 1 | 1 | inhibition at 10 µM [1, 6]: 43%; inhibition at 10 µM [2, 7]: 25%; Quadrant (FIG. 5b) ([3]; primary HTS, 10 μM): Q4
24 | CC(=O)Oc1ccc(C(c2ccc(OC(C)=O)cc2)c2ccccn2)cc1 [Bisacodyl] | – | – | 0 | 0 | inhibition at 10 µM [1, 6]: 10%; inhibition at 10 µM [2, 7]: 8%; Quadrant (FIG. 5b) ([3]; primary HTS, 10 μM): Q4
25 | CC1CC(OC(=O)c2ccccc2O)CC(C)(C)C1 (stereo not drawn) [Homosalate] | – | – | 1 | 1 | inhibition at 10 µM ([1]; primary microglia HTS, fibrin stimulation, activation = cell size >800 μm2): -3%; inhibition at 10 µM ([2]; 48 h, primary microglia HTS, LPS stimulation, activation = cell size >800 μm2): 18%; Quadrant (FIG. 5b) [3, 13]: Q4
26 | COC(=O)[C@H]1[C@H]2C[C@@H]3c4[nH]c5cc(OC)ccc5c4CCN3C[C@H]2C[C@@H](OC(=O)c2cc(OC)c(OC)c(OC)c2)[C@@H]1OC [Reserpine] | – | – | 3 | 7 | inhibition at 10 µM [1, 11]: -4%; inhibition at 10 µM [2, 12]: 64%; Quadrant (FIG. 5b) [3, 13]: Q1
27 | Nc1c2c(nc3ccccc13)CCCC2 [Tacrine] | -2 | Q4 | 1 | 0 | inhibition at 10 µM [2]: 5%
